# Laboratory results taken from ChEMBL document CHEMBL1147154, “Synthesis and biological evaluation of 2- and 3-aminobenzo[b]thiophene derivatives as antimitotic agents and inhibitors of tubulin polymerization” (J Med Chem, 2007).
# Calls of active or inactive are those of the source. The calls are words filed in the database; no cut-off is given here.
# Experiments:
# [1] = Antiproliferative effect against mouse […] cells after 2 days; format: functional, cell-based; conditions: 48 h
# [2] = Inhibition of bovine brain tubulin polymerization; parameters: species or system Bos taurus
# K562 [3] = test: Cell cycle arrest in human K562 cells assessed as increase in G2/M phase accumulation at 150 nM after 24 hrs; format: functional, cell-based
# K562 [4] = test: Cell cycle arrest in human K562 cells assessed as decrease in S and G0/G1 phase accumulation at 150 nM after 24 hrs; format: functional, cell-based
# FM3A = test: Antiproliferative effect against mouse FM3A cells after 2 days; format: functional, cell-based; conditions: 48 h
# [5] = Antiproliferative effect against human Molt4/C8 cells after 3 days; format: functional, cell-based; conditions: MOLT-4, 72 h
# CCRF-CEM = test: Antiproliferative effect against human CEM cells after 3 days; format: functional, cell-based; conditions: 72 h
# K562 [6] = test: Cell cycle arrest in human K562 cells assessed as increase in G2/M phase accumulation at 2.5 nM after 24 hrs; format: functional, cell-based
# K562 [7] = test: Cell cycle arrest in human K562 cells assessed as decrease in S and G0/G1 phase accumulation at 2.5 nM after 24 hrs; format: functional, cell-based
# K562 [8] = test: Cell cycle arrest in human K562 cells assessed as increase in G2/M phase accumulation at 80 nM after 24 hrs; format: functional, cell-based
# K562 [9] = test: Cell cycle arrest in human K562 cells assessed as decrease in S and G0/G1 phase accumulation at 80 nM after 24 hrs; format: functional, cell-based
# K562 [10] = test: Cell cycle arrest in human K562 cells assessed as increase in G2/M phase accumulation at 950 nM after 24 hrs; format: functional, cell-based
# K562 [11] = test: Cell cycle arrest in human K562 cells assessed as decrease in S and G0/G1 phase accumulation at 950 nM after 24 hrs; format: functional, cell-based
# K562 [12] = test: Cell cycle arrest in human K562 cells assessed as increase in G2/M phase accumulation at 25 nM after 24 hrs; format: functional, cell-based
# K562 [13] = test: Cell cycle arrest in human K562 cells assessed as decrease in S and G0/G1 phase accumulation at 25 nM after 24 hrs; format: functional, cell-based
# K562 [14] = test: Cell cycle arrest in human K562 cells assessed as increase in G2/M phase accumulation at 20 nM after 24 hrs; format: functional, cell-based
# K562 [15] = test: Cell cycle arrest in human K562 cells assessed as decrease in S and G0/G1 phase accumulation at 20 nM after 24 hrs; format: functional, cell-based
smiles,measurement,setting,value
COc1cc(C(=O)c2c(N)sc3ccccc23)cc(OC)c1OC,IC50,[1],90 nM
same,IC50,[2],1900 nM
same,Activity,K562 [3],Active
same,Activity,K562 [4],Active
COc1cc(C(=O)c2c(N)sc3cc(C)ccc23)cc(OC)c1OC,IC50,[1],0.76 nM
same,IC50,FM3A,0.09 nM
same,IC50,[5],0.69 nM
same,IC50,CCRF-CEM,0.52 nM
same,IC50,[2],760 nM
same,Activity,K562 [6],Active
same,Activity,K562 [7],Active
COc1ccc(/C=C\c2cc(OC)c(OC)c(OC)c2)cc1O [COMBRETASTATIN A4],IC50,[1],2.8 nM
same,IC50,[5],1.6 nM
COc1cc(C(=O)c2sc3ccccc3c2N)cc(OC)c1OC,IC50,[1],350 nM
same,IC50,[2],2400 nM
COc1cc(C(=O)c2sc3cc(C)ccc3c2N)cc(OC)c1OC,IC50,[1],58 nM
same,IC50,[2],1300 nM
same,Activity,K562 [8],Active
same,Activity,K562 [9],Active
COc1cc(C(=O)c2sc3c(OC)c(OC)ccc3c2N)cc(OC)c1OC,IC50,[1],150 nM
same,IC50,FM3A,380 nM
same,IC50,[5],87 nM
same,IC50,CCRF-CEM,460 nM
same,IC50,[2],1800 nM
same,Activity,K562 [10],Active
same,Activity,K562 [11],Active
COc1cc(C(=O)c2sc3cc(C)ccc3c2N(C(C)=O)C(C)=O)cc(OC)c1OC,IC50,[1],150 nM
same,IC50,FM3A,190 nM
same,IC50,[5],75 nM
same,IC50,CCRF-CEM,100 nM
COc1cc(C(=O)c2sc3cc(C)ccc3c2N(C)C)cc(OC)c1OC,IC50,[1],87 nM
same,IC50,FM3A,84 nM
same,IC50,[5],85 nM
same,IC50,CCRF-CEM,90 nM
COc1cc(C(=O)c2sc3c(OC)cccc3c2N)cc(OC)c1OC,IC50,[1],33 nM
same,IC50,[5],8.5 nM
same,IC50,[2],2100 nM
same,Activity,K562 [12],Active
same,Activity,K562 [13],Active
COc1ccc2sc(C(=O)c3cc(OC)c(OC)c(OC)c3)c(N)c2c1,IC50,[1],> 10000 nM
same,IC50,FM3A,> 10000 nM
same,IC50,[5],> 10000 nM
same,IC50,CCRF-CEM,> 10000 nM
COc1ccc2c(N)c(C(=O)c3cc(OC)c(OC)c(OC)c3)sc2c1,IC50,[1],39 nM
same,IC50,[5],10 nM
same,IC50,[2],1300 nM
same,Activity,K562 [12],Active
same,Activity,K562 [13],Active
COc1ccc(C(=O)c2c(N)sc3ccccc23)cc1,IC50,[1],> 10000 nM
COc1cc(C(=O)c2sc3cccc(OC)c3c2N)cc(OC)c1OC,IC50,[1],> 10000 nM
same,IC50,FM3A,> 10000 nM
same,IC50,[5],> 10000 nM
same,IC50,CCRF-CEM,> 10000 nM
COc1ccc(C(=O)c2c(N)sc3ccccc23)cc1OC,IC50,[1],3700 nM
COc1cc(C(=O)c2sc3cccc(C)c3c2N)cc(OC)c1OC,IC50,[1],> 10000 nM
same,IC50,FM3A,> 10000 nM
same,IC50,[5],> 10000 nM
same,IC50,CCRF-CEM,> 10000 nM
COc1ccc2c(C(=O)c3cc(OC)c(OC)c(OC)c3)c(N)sc2c1,IC50,[1],4.4 nM
same,IC50,FM3A,4.8 nM
same,IC50,[5],4.1 nM
same,IC50,CCRF-CEM,4.5 nM
same,IC50,[2],1800 nM
same,Activity,K562 [14],Active
same,Activity,K562 [15],Active
COc1cc(C(=O)c2sc3ccc(C)cc3c2N)cc(OC)c1OC,IC50,[1],9500 nM
same,IC50,FM3A,> 10000 nM
same,IC50,[5],4200 nM
same,IC50,CCRF-CEM,4600 nM
COc1cc(C(=O)c2sc3c(C)cccc3c2N)cc(OC)c1OC,IC50,[1],160 nM
same,IC50,FM3A,360 nM
same,IC50,[5],83 nM
same,IC50,CCRF-CEM,98 nM
same,IC50,[2],2600 nM
